System: PC3 cells
Test: NAMPT Cell Proliferation Assay (Cell Titer Glo; also performed in the presence of 0.3 mM nicotinamide mononucleotide)
Format: cell-based
Conditions: Homo sapiens, PC-3, 120 h, 5 days incubation, cell viability by Cell Titer Glo
Description: NAMPT Cell Proliferation Assay
PC3 cells were seeded in 96-well black plates (Corning #3904) at 500 cells/well in 90 μl of RPMI media containing 10% heat-inactivated FBS and incubated overnight at 37° C. and 5% CO2 to allow cells to attach to wells. The following day, test compounds were serially diluted in neat DMSO to 1000× final concentrations prior to dilution with RPMI media to 10× and 1% DMSO. Ten μL of the 10× compounds were then transferred to wells containing cells to produce a dose response of 10-fold dilutions from 10 μM to 1×10^−5 μM. Cells were incubated for 5 days at 37° C. and 5% CO2, then cell viability was measured using Cell Titer Glo reagent (Promega #G7571). Percent inhibition values were calculated and fitted to a sigmoidal dose response curves using Assay Explorer software to determine IC50s.

Row | Structure (SMILES) | IC50 [nM]
1 | CN(C)CCc1ccc(NC(=O)c2ccc(NC(=O)C3CN(c4cccnn4)C3)cc2)cc1 [Example 1021, N-[4-({4-[2-(dimethylamino)ethyl]phenyl}carbamoyl)phenyl]-1-(pyridazin-3-yl)azetidine-3-carboxamide] | 47.7
2 | O=C(Nc1ccc(C2CCN(C(=O)CCC(F)(F)F)CC2)nc1)C1CN(c2cccnn2)C1 [Example 919, 1-(pyridazin-3-yl)-N-{6-[1-(4,4,4-trifluorobutanoyl)piperidin-4-yl]pyridin-3-yl}azetidine-3-carboxamide] | 51.9
3 | O=C(Nc1ccc(CC2CCN(C(=O)C3CCCO3)CC2)cc1)C1CN(c2cccnn2)C1 (stereo not shown) [Example 944, 1-(pyridazin-3-yl)-N-(4-{[1-(tetrahydrofuran-2-ylcarbonyl)piperidin-4-yl]methyl}phenyl)azetidine-3-carboxamide] | 7.14
4 | O=C(N[C@H]1CCN(c2cccnn2)C1)c1ccc(C2CCN(C(=O)CC3CC4CCC3C4)CC2)s1 (stereo partly drawn) [Example 1019, 5-[1-(bicyclo[2.2.1]hept-2-ylacetyl)piperidin-4-yl]-N-[(3S)-1-(pyridazin-3-yl)pyrrolidin-3-yl]thiophene-2-carboxamide] | 2460
5 | CC(C)(C)CC(=O)N1CCC(Cc2ccc(NC(=O)C3CN(c4cccnn4)C3)cc2)CC1 [Example 898, N-(4-{[1-(3,3-dimethylbutanoyl)piperidin-4-yl]methyl}phenyl)-1-(pyridazin-3-yl)azetidine-3-carboxamide] | 0.851
6 | Cc1ccc(N2CC(C(=O)Nc3ccc(-c4cnn(CC(C)(C)C)c4)cc3)C2)nn1 [Example 878, N-{4-[1-(2,2-dimethylpropyl)-1H-pyrazol-4-yl]phenyl}-1-(6-methylpyridazin-3-yl)azetidine-3-carboxamide] | 70.6
7 | O=C(NC[C@H]1CCCO1)c1ccc(NC(=O)C2CN(c3cccnn3)C2)cc1 [Example 996, 1-(pyridazin-3-yl)-N-(4-{[(2R)-tetrahydrofuran-2-ylmethyl]carbamoyl}phenyl)azetidine-3-carboxamide] | 104
8 | COC(C)(C)CNC(=O)c1ccc(NC(=O)C2CN(c3cccnn3)C2)cc1 [Example 994, N-{4-[(2-methoxy-2-methylpropyl)carbamoyl]phenyl}-1-(pyridazin-3-yl)azetidine-3-carboxamide] | 59
9 | O=C(NC[C@@H]1CCCO1)c1ccc(NC(=O)C2CN(c3cccnn3)C2)cc1 [Example 1000, 1-(pyridazin-3-yl)-N-(4-{[(2S)-tetrahydrofuran-2-ylmethyl]carbamoyl}phenyl)azetidine-3-carboxamide] | 77
10 | O=C(NC1CN2CCC1CC2)c1ccc(NC(=O)C2CN(c3cccnn3)C2)cc1 (stereo not shown) [Example 988, N-[4-(1-azabicyclo[2.2.2]oct-3-ylcarbamoyl)phenyl]-1-(pyridazin-3-yl)azetidine-3-carboxamide] | 1240
11 | Cc1ccnnc1N1CC(C(=O)Nc2ccc(C3CCN(C(=O)CC(C)(C)C)CC3)cc2)C1 [Example 969, N-{4-[1-(3,3-dimethylbutanoyl)piperidin-4-yl]phenyl}-1-(4-methylpyridazin-3-yl)azetidine-3-carboxamide] | 0.347
12 | O=C(Nc1ccc(CC2CCN(C(=O)C3CC3)CC2)cc1)C1CN(c2cccnn2)C1 [Example 967, N-(4-{[1-(cyclopropylcarbonyl)piperidin-4-yl]methyl}phenyl)-1-(pyridazin-3-yl)azetidine-3-carboxamide] | 3.05
13 | O=C(Nc1ccc(CC2CCN(C(=O)C3CCC3)CC2)cc1)C1CN(c2cccnn2)C1 [Example 960, N-(4-{[1-(cyclobutylcarbonyl)piperidin-4-yl]methyl}phenyl)-1-(pyridazin-3-yl)azetidine-3-carboxamide] | 2.86
14 | CCC(C)(C)C(=O)N1CCC(c2ccc(C(=O)N[C@H]3CCN(c4cccnn4)C3)s2)CC1 [Example 1015, 5-[1-(2,2-dimethylbutanoyl)piperidin-4-yl]-N-[(3S)-1-(pyridazin-3-yl)pyrrolidin-3-yl]thiophene-2-carboxamide] | 90.1
15 | CC(C)CCC(=O)N1CCC(Cc2ccc(NC(=O)C3CN(c4cccnn4)C3)cc2)CC1 [Example 935, N-(4-{[1-(4-methylpentanoyl)piperidin-4-yl]methyl}phenyl)-1-(pyridazin-3-yl)azetidine-3-carboxamide] | 2
16 | O=C(Nc1ccc(CC2CCN(C(=O)c3ccccc3)CC2)cc1)C1CN(c2cccnn2)C1 [Example 895, N-{4[(1-benzoylpiperidin-4-yl)methyl]phenyl}-1-(pyridazin-3-yl)azetidine-3-carboxamide] | 2.15

More lines, in order of falling IC50, values ahead:

Row | IC50 [nM] | Structure (SMILES)
17 | 8160 | O=C(N[C@@H]1CCOC1)c1ccc(NC(=O)C2CN(c3cccnn3)C2)cc1 [Example 1022, 1-(pyridazin-3-yl)-N-{4-[(3R)-tetrahydrofuran-3-ylcarbamoyl]phenyl}azetidine-3-carboxamide]
18 | 7920 | O=C(NC1CC1)c1ccc(NC(=O)C2CN(c3cccnn3)C2)cc1 [Example 1004, N-[4-(cyclopropylcarbamoyl)phenyl]-1-(pyridazin-3-yl)azetidine-3-carboxamide]
19 | 1510 | O=C(NC1CCC1)c1ccc(NC(=O)C2CN(c3cccnn3)C2)cc1 [Example 992, N-[4-(cyclobutylcarbamoyl)phenyl]-1-(pyridazin-3-yl)azetidine-3-carboxamide]
20 | 760 | CC1CC1NC(=O)c1ccc(NC(=O)C2CN(c3cccnn3)C2)cc1 (stereo not shown) [Example 991, N-{4-[(2-methylcyclopropyl)carbamoyl]phenyl}-1-(pyridazin-3-yl)azetidine-3-carboxamide]
21 | 139 | Cc1ccc(N2CC(C(=O)Nc3ccc(O[C@@H]4CCN(C(=O)CC(C)C)C4)cc3)C2)nn1 [Example 915, N-(4-{[(3R)-1-(3-methylbutanoyl)pyrrolidin-3-yl]oxy}phenyl)-1-(6-methylpyridazin-3-yl)azetidine-3-carboxamide]
22 | 101 | Cc1ccc(N2CC(C(=O)Nc3ccc(O[C@@H]4CCN(C(=O)c5ccc(F)cc5F)C4)cc3)C2)nn1 [Example 917, N-(4-{[(3R)-1-(2,4-difluorobenzoyl)pyrrolidin-3-yl]oxy}phenyl)-1-(6-methylpyridazin-3-yl)azetidine-3-carboxamide]
23 | 92.5 | Cc1nnccc1N1CC(C(=O)Nc2ccc(C3CCN(C(=O)c4ccccc4)CC3)cc2)C1 [Example 908, N-[4-(1-benzoylpiperidin-4-yl)phenyl]-1-(3-methylpyridazin-4-yl)azetidine-3-carboxamide]
24 | 83.5 | CN(CCNC(=O)c1ccc(NC(=O)C2CN(c3cccnn3)C2)cc1)c1ccccc1 [Example 982, N-[4-({2-[methyl(phenyl)amino]ethyl}carbamoyl)phenyl]-1-(pyridazin-3-yl)azetidine-3-carboxamide]
25 | 65.6 | Cc1ccc(N2CC(C(=O)Nc3ccc(-c4cnn(CC5(C)CCOCC5)c4)cc3)C2)nn1 [Example 891, 1-(6-methylpyridazin-3-yl)-N-(4-{1-[(4-methyltetrahydro-2H-pyran-4-yl)methyl]-1H-pyrazol-4-yl}phenyl)azetidine-3-carboxamide]
26 | 30.9 | O=C(Nc1ccc(C2CCN(C(=O)CCC(F)(F)F)CC2)c(F)c1)C1CN(c2cccnn2)C1 [Example 883, N-{3-fluoro-4-[1-(4,4,4-trifluorobutanoyl)piperidin-4-yl]phenyl}-1-(pyridazin-3-yl)azetidine-3-carboxamide]
27 | 28.5 | CC(C)(C)CC(=O)N1CCC(n2cc(NC(=O)C3CN(c4cccnn4)C3)cn2)CC1 [Example 970, N-{1-[1-(3,3-dimethylbutanoyl)piperidin-4-yl]-1H-pyrazol-4-yl}-1-(pyridazin-3-yl)azetidine-3-carboxamide]
28 | 15.4 | CC(C)C(=O)N1CCC(c2ccc(NC(=O)C3CN(c4cccnn4)C3)cc2F)CC1 [Example 880, N-{3-fluoro-4-[1-(2-methylpropanoyl)piperidin-4-yl]phenyl}-1-(pyridazin-3-yl)azetidine-3-carboxamide]
29 | 7.84 | COCC(C)(C)CNC(=O)c1ccc(NC(=O)C2CN(c3cccnn3)C2)cc1 [Example 974, N-{4-[(3-methoxy-2,2-dimethylpropyl)carbamoyl]phenyl}-1-(pyridazin-3-yl)azetidine-3-carboxamide]
30 | 7.66 | CC(C)(C)C(=O)N1CCC(c2ccc(NC(=O)C3CN(c4cccnn4)C3)cc2F)CC1 [Example 886, N-{4-[1-(2,2-dimethylpropanoyl)piperidin-4-yl]-3-fluorophenyl}-1-(pyridazin-3-yl)azetidine-3-carboxamide]
31 | 3.17 | CC1CC1C(=O)N1CCC(Cc2ccc(NC(=O)C3CN(c4cccnn4)C3)cc2)CC1 (stereo not shown) [Example 931, N-[4-({1-[(2-methylcyclopropyl)carbonyl]piperidin-4-yl}methyl)phenyl]-1-(pyridazin-3-yl)azetidine-3-carboxamide]
32 | 2.75 | O=C(Nc1ccc(C2CCN(C(=O)c3ccccc3)CC2)c(F)c1)C1CN(c2cccnn2)C1 [Example 884, N-[4-(1-benzoylpiperidin-4-yl)-3-fluorophenyl]-1-(pyridazin-3-yl)azetidine-3-carboxamide]
33 | 2.26 | CCCCCC(=O)N1CCC(Cc2ccc(NC(=O)C3CN(c4cccnn4)C3)cc2)CC1 [Example 948, N-{4-[(1-hexanoylpiperidin-4-yl)methyl]phenyl}-1-(pyridazin-3-yl)azetidine-3-carboxamide]
34 | 2.07 | CC(C)C(=O)N1CCC(Cc2ccc(NC(=O)C3CN(c4cccnn4)C3)cc2)CC1 [Example 901, N-(4-{[1-(2-methylpropanoyl)piperidin-4-yl]methyl}phenyl)-1-(pyridazin-3-yl)azetidine-3-carboxamide]
